The test system of assay [1] is Mycobacterium tuberculosis. As to the kind of experiment: Antimicrobial activity against Mycobacterium tuberculosis H37Ra after 4 days by MTT assay. Type of assay: functional, organism-based. The conditions noted are these: 96 h.
The nature of assay [2]: Cytotoxicity against human CEM-TART cells after 4 days by MTT assay. The settings on record: 96 h. It counts as cell-based. (In general: Tetrazolium dyes change colour on reduction, which living cells bring about.)

Results on four compounds are retold here after ChEMBL document CHEMBL3351947, “Isolation of pyrrolocins A-C: cis- and trans-decalin tetramic acid antibiotics from an endophytic fungal-derived pathway” (J Nat Prod, 2014).

For orientation: IC50 means the point on the concentration scale where inhibition reaches its midpoint.

For `CC1=C[C@H]2C[C@@H](C)CC[C@@H]2[C@@](C)(C(=O)C2=C(O)[C@@H](CO)NC2=O)[C@H]1/C=C/C=C/C[C@@H](C)O`, the IC50 in assay [1] was found to be 56.4 µM; in assay [2] it was 113 µM.

With `CC1=C[C@H]2C[C@@H](C)CC[C@@H]2[C@@](C)(C(=O)C2=C(O)[C@@H](CO)N(C)C2=O)[C@H]1/C=C/C=C/C[C@@H](C)O`, the IC50 amounted to 26.3 µM in assay [1] and 76.6 µM in assay [2].

For the compound `CC1=C[C@@H]2C[C@@H](C)CC[C@@H]2[C@@](C)(C(=O)C2=C(O)[C@@H](CO)NC2=O)[C@@H]1/C=C/C=C/C[C@@H](C)O`, the IC50 is 113 µM in assay [1] and 167 µM in assay [2].

In the case of `CO[C@H]1/C=C/O[C@@]2(C)Oc3c(C)c(O)c4c(O)c(c(/C=N/N5CCN(C)CC5)c(O)c4c3C2=O)NC(=O)/C(C)=C\C=C\[C@H](C)[C@H](O)[C@@H](C)[C@@H](O)[C@@H](C)[C@H](OC(C)=O)[C@@H]1C` [RIFAMPIN], the IC50 in assay [1] amounted to 0.152 µM.
